Measurements published in PMC5697638, “Identification of a Potent Phosphoinositide 3‐Kinase Pan Inhibitor Displaying a Strategic Carboxylic Acid Group and Development of Its Prodrugs” (Chemmedchem, 2017).
Like-named read-outs stand apart in the source and are kept apart here.

Legend:
Assay type in all cases: biochemical
[1] = molecular target: T1, human PI3Kα (PIK3CA/PIK3R1) (Homo sapiens, UniProt P42336); test: lipid kinase assay (ADP-Glo), PI3Kα; settings: for IC50: mean of at least three determinations, 95 % confidence intervals; for inhibition at 1 µM: determined at 1 μM, at least triplicate, read-out: Inhibitory activity, PI3K isoform α
T1 construct: purchased ProQinase, Germany 1161‐1165‐1
T1 sequence (P42336 whole entry, canonical isoform): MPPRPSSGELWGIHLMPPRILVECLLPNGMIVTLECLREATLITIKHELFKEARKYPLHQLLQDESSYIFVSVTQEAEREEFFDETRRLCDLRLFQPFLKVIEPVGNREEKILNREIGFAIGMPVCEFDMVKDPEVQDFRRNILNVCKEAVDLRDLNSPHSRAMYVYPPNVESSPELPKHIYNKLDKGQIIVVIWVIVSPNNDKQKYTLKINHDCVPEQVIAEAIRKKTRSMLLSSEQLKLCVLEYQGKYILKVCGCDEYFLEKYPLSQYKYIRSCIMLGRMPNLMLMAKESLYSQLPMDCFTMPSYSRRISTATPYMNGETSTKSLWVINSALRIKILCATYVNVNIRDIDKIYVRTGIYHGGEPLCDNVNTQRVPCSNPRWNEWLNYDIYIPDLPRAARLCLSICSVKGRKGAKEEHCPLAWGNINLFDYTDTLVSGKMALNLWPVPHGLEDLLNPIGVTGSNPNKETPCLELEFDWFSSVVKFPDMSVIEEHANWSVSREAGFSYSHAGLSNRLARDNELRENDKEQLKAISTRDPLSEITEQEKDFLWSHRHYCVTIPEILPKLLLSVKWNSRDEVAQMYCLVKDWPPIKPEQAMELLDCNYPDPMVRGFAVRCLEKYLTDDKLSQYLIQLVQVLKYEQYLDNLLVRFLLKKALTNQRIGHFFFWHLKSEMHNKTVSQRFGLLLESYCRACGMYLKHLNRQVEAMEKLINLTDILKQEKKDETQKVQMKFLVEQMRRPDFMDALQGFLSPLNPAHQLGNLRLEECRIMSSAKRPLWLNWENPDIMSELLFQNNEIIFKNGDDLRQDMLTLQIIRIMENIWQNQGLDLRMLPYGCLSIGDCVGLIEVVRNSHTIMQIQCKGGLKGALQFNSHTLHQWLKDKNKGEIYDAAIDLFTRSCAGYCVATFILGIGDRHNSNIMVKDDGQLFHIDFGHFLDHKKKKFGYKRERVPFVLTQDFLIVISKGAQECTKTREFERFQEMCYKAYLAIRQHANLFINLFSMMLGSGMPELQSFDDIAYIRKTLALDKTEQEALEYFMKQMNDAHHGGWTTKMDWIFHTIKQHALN
T1 sequence (P27986 whole entry partner, canonical isoform): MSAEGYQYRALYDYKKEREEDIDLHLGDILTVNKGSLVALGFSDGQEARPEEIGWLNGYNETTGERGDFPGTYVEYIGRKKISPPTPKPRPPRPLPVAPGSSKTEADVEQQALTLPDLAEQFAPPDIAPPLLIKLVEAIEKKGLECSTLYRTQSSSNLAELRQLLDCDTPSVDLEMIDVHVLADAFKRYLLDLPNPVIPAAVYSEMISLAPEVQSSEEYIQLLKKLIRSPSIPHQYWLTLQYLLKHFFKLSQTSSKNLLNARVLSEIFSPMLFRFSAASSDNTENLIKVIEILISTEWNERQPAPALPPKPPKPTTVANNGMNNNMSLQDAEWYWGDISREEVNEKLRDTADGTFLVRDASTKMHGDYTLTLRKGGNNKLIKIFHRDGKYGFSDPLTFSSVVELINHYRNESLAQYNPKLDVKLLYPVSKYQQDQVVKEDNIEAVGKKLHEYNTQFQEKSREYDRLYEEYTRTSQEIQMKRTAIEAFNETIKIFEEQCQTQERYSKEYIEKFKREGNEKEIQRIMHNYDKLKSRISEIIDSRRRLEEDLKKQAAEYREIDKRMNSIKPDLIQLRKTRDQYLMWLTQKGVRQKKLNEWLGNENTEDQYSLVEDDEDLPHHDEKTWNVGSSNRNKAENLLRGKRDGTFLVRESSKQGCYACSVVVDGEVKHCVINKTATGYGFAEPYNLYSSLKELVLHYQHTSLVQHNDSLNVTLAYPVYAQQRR
Protocol: (§1) In vitro selection, lipid kinase assay: To determine the inhibitory activity of the new molecular entities on PI3K enzyme, a lipid kinase assay was performed: recombinant proteins (30 ng), human PI3Kα (PIK3CA/PIK3R1, #1161‐1165‐1 ProQinase–Germany), hPI3Kβ (PIK3CB wt/PIK3R1, #1168‐1165‐1 ProQinase, Germany), hPI3Kγ (PIK3CG, #1163‐0000‐1 ProQinase, Germany), hPI3Kδ (PIK3CD/PIK3R1, #1162–1165‐1 ProQinase, Germany), hPI3K‐C2α (PIK3C2A, #14‐906 Merck Millipore_Merck KGaA, Germany), hPI3K‐C2β (PIK3C2B, #14‐907 Merck Millipore_Merck KGaA, Germany), hPI3K‐c2γ (PIK3C2G, #1207‐0000‐1 ProQinase, Germany), and hVps34 (PIK3C3, #1160‐0000‐1 ProQinase, Germany), were incubated in kinase buffer {12.5 μL; 20 mM Tris‐HCl pH 7.5, 10 mM MgCl2, 10 μM ATP, 0.05 mg mL^−1 BSA, 0.5 mM EDTA, 5 mM HEPES pH 7.5, for PI3Kα,PI3Kβ, PI3Kγ, PI3Kδ, PI3KC‐2α, and PI3KC‐2γ; 15 mM MnCl2, 5 mM EGTA, 100 μM ATP, 50 mM HEPES pH 7.5, 100 mM NaCl, and 0.03 % CHAPS for PI3K‐C2β and VPS34 {BSA=bovine serum albumin; EDTA=ethylenediaminetetraacetic acid; HEPES=4‐(2‐hydroxyethyl)‐1‐piperazineethanesulfonic acid; EGTA=ethylene glycol‐bis(2‐aminoethylether)‐N,N,N′,N′‐tetraacetic acid; CHAPS=3‐[(3‐cholamidopropyl)dimethylammonio]‐1‐propanesulfonate}. In the reaction, the ATP concentration used for different PI3Ks was defined on the basis of the Michaelis–Menten kinetics of each enzyme, provided by the supplier. Reaction was performed in presence of 0.5 mg mL^−1 lipid micelles (1:1 phosphatidylinositol/phosphatidylserine) and in the absence (DMSO alone) or presence of increasing concentrations of each compound (from 0.1 nM to 30 μM). The mixture was kept at room temperature (RT) for 30 min for PI3Kα, PI3Kβ, PI3Kγ, PI3Kδ, PI3KC‐2α, and PI3KC‐2γ and for 1 h for PI3K‐C2β and PI3K‐C3. The amount of ADP produced in the reaction was measured by using the ADP‐Glo Kinase Assay kit from Promega (#V9102) and a luminescence reader (Glomax multi detection system, Promega, model number 9301‐010).
(§2) The residual PI3K lipid kinase activity in the presence of each molecule at different concentrations was related to the control, intended as the recombinant protein in the presence of DMSO alone and was expressed as a percentage. To derive the IC50 value, all data (% of lipid kinase activity) were plotted on a dose–response curve (Graph Pad software), and the IC50 was calculated by using nonlinear regression fit (equation [log agonist] versus response).

[2] = molecular target: T2, hPI3Kβ (PIK3CB wt/PIK3R1) (Homo sapiens, UniProt P42338); test: lipid kinase assay (ADP-Glo), PI3Kβ; settings: for IC50: Table 2, mean of at least three determinations, 95 % confidence intervals; for inhibition at 1 µM: determined at 1 μM, at least triplicate, read-out: Inhibitory activity, PI3K isoform β
T2 construct: purchased ProQinase, Germany 1168‐1165‐1
T2 sequence (P42338 whole entry, canonical isoform): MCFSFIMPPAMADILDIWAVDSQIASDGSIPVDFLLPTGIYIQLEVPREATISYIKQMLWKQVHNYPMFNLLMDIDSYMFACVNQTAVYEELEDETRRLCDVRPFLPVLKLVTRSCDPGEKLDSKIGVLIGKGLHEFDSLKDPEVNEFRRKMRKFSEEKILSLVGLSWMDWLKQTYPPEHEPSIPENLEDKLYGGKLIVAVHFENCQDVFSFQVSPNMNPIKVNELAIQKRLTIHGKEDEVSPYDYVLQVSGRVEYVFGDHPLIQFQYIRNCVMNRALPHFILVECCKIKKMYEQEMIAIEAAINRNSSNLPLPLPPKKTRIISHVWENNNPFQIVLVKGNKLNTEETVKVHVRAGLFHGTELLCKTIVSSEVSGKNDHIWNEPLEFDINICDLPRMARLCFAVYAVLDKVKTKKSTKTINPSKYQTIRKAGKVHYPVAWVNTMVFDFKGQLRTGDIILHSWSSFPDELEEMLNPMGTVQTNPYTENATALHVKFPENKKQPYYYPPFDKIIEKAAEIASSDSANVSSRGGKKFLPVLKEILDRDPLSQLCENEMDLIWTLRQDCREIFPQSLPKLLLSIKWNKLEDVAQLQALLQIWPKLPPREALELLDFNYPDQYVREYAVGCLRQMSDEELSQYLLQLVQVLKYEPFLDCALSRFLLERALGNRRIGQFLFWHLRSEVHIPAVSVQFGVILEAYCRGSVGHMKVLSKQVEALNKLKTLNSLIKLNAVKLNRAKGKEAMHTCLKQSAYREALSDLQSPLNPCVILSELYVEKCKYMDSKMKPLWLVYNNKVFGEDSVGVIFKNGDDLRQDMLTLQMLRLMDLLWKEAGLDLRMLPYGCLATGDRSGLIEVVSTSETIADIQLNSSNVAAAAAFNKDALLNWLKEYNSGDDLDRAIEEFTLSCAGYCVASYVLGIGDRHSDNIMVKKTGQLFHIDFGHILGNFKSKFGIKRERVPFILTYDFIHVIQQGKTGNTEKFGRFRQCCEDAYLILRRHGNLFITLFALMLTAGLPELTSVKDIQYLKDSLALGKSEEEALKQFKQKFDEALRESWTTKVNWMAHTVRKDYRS
T2 sequence (P27986 whole entry partner, canonical isoform): as the sequence (P27986 whole entry partner, canonical isoform) above
Protocol: as §1, §2

[3] = molecular target: T3, hPI3Kδ (PIK3CD/PIK3R1) (Homo sapiens, UniProt O00329); test: lipid kinase assay (ADP-Glo), PI3Kδ; settings: for IC50: Table 2, mean of at least three determinations, 95 % confidence intervals; for inhibition at 1 µM: determined at 1 μM, at least triplicate, read-out: Inhibitory activity, PI3K isoform δ
T3 construct: purchased ProQinase, Germany 1162–1165‐1
T3 sequence (O00329 whole entry, canonical isoform): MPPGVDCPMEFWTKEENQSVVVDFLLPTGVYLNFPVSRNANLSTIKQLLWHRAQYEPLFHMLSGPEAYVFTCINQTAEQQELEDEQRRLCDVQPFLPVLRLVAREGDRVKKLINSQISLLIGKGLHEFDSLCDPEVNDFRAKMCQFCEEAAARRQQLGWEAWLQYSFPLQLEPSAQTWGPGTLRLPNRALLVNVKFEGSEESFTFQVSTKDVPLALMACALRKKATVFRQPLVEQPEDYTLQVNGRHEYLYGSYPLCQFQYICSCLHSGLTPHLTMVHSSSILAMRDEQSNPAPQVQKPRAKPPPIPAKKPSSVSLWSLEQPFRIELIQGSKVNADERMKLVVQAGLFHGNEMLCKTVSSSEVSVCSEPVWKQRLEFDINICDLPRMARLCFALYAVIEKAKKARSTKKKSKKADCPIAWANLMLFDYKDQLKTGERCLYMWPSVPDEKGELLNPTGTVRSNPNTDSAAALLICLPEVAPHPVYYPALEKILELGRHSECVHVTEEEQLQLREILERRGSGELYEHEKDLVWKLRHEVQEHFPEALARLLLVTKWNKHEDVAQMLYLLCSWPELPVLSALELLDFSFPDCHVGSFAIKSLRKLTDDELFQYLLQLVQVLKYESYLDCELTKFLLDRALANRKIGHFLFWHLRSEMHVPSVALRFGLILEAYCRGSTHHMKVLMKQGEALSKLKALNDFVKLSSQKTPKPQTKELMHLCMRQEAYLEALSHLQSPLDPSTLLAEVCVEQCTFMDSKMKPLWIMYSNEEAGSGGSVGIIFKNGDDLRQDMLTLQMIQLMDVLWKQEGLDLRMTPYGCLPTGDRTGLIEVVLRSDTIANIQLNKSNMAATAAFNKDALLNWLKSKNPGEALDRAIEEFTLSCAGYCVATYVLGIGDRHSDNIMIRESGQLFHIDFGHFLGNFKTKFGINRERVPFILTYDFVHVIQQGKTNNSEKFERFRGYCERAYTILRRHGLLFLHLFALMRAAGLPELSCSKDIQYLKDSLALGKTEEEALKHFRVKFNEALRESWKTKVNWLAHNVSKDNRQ
T3 sequence (P27986 whole entry partner, canonical isoform): as the sequence (P27986 whole entry partner, canonical isoform) above
Protocol: as §1, §2

[4] = molecular target: T4, hPI3Kγ (PIK3CG) (Homo sapiens, UniProt P48736); test: lipid kinase assay (ADP-Glo), PI3Kγ; settings: for IC50: Table 2, mean of at least three determinations, 95 % confidence intervals; for inhibition at 1 µM: determined at 1 μM, at least triplicate, read-out: Inhibitory activity, PI3K isoform γ
T4 construct: purchased ProQinase, Germany 1163‐0000‐1
T4 sequence (P48736 whole entry, canonical isoform): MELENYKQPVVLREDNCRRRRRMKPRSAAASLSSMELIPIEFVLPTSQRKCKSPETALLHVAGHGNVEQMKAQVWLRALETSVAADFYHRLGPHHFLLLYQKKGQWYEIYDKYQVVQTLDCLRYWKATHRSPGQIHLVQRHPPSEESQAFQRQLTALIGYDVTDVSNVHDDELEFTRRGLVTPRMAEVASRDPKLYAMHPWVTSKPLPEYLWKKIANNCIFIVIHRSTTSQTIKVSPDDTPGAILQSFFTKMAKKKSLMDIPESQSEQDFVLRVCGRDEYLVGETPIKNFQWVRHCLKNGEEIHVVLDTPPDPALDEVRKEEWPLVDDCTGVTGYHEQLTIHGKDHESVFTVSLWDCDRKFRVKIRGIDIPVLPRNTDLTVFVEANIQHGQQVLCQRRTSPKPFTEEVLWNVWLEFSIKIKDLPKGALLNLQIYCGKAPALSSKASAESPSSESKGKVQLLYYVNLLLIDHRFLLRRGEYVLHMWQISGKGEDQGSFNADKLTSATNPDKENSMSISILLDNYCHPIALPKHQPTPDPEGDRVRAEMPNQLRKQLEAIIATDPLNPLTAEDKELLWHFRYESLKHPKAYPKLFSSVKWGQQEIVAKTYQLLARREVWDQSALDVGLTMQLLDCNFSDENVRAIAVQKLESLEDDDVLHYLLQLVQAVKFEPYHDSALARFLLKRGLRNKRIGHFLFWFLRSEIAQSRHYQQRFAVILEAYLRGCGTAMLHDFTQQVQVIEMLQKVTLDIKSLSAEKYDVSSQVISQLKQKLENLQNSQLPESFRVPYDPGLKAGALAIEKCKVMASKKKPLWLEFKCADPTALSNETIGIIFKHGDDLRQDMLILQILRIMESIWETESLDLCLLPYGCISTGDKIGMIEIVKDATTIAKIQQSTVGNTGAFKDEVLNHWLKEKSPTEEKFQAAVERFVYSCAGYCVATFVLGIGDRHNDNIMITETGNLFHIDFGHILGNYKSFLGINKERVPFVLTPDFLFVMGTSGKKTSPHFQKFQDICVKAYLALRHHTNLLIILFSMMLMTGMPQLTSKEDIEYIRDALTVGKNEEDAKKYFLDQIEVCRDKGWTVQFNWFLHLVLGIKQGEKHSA
Protocol: as §1, §2

[5] = Table 3, analogues of 37, read-out: IC50 against PI3Kα

| Structure (SMILES) | inhibition at 1 µM [1] [%] | inhibition at 1 µM [2] [%] | inhibition at 1 µM [3] [%] | inhibition at 1 µM [4] [%] | IC50 [1, 5] [nM] | other results |
| --- | --- | --- | --- | --- | --- | --- |
| O=c1cc(N2CCOCC2)[nH]c2c(-c3cn(-c4ccccc4)nn3)cccc12 [Compound 25, 2‐Morpholino‐8‐(1‐phenyl‐1H‐1,2,3‐triazol‐4‐yl)quinolin‐4(1H)‐one] | > 50 | < 50 | > 50 | < 50 |  | IC50 ([1]; Table 2, read-out: IC50 PI3Kα): 740 ± 310 nM; IC50 [2]: 5500 ± 2500 nM; IC50 [3]: 610 ± 270 nM; IC50 [4]: 3000 ± 1000 nM |
| O=c1cc(N2CCOCC2)[nH]c2c(-c3cn(-c4cccc(O)c4)nn3)cccc12 [Compound 26, 8‐[1‐(3‐Hydroxyphenyl)‐1H‐1,2,3‐triazol‐4‐yl]‐2‐morpholinoquinolin‐4(1H)‐one] | < 50 | < 50 | < 50 | < 50 |  |  |
| COc1ccc(-n2cc(-c3cccc4c(=O)cc(N5CCOCC5)[nH]c34)nn2)cc1O [Compound 27, 8‐[1‐(3‐Hydroxy‐4‐methoxyphenyl)‐1H‐1,2,3‐triazol‐4‐yl]‐2‐morpholinoquinolin‐4(1H)‐one] | < 50 | < 50 | < 50 | < 50 |  |  |
| O=c1cc(N2CCOCC2)[nH]c2c(-c3cn(-c4ccc(Cl)cc4)nn3)cccc12 [Compound 28, 8‐[1‐(4‐Chlorophenyl)‐1H‐1,2,3‐triazol‐4‐yl]‐2‐morpholinoquinolin‐4(1H)‐one] | < 50 | < 50 | < 50 | < 50 |  |  |
| O=c1cc(N2CCOCC2)[nH]c2c(-c3cn(-c4ccc(OC(F)(F)F)cc4)nn3)cccc12 [Compound 29, 2‐Morpholino‐8‐{1‐[4‐(trifluoromethoxy)phenyl]‐1H‐1,2,3‐triazol‐4‐yl}quinolin‐4(1H)‐one] | < 50 | < 50 | < 50 | < 50 |  |  |
| COc1ccc(-n2cc(-c3cccc4c(=O)cc(N5CCOCC5)[nH]c34)nn2)cc1[N+](=O)[O-] [Compound 30, 8‐[1‐(4‐Methoxy‐3‐nitrophenyl)‐1H‐1,2,3‐triazol‐4‐yl]‐2‐morpholinoquinolin‐4(1H)‐one] | < 50 | < 50 | < 50 | < 50 |  |  |
| COC(=O)c1ccc(Cn2cc(-c3cccc4c(=O)cc(N5CCOCC5)[nH]c34)nn2)cc1 [Compound 31, Methyl‐4‐{[4‐(2‐morpholino‐4‐oxo‐1,4‐dihydroquinolin‐8‐yl)‐1H‐1,2,3‐triazol‐1‐yl]methyl}benzoate] | < 50 | < 50 | < 50 | < 50 |  |  |
| Nc1ccc(-n2cc(-c3cccc4c(=O)cc(N5CCOCC5)[nH]c34)nn2)cc1 [Compound 32, 8‐[1‐(4‐Aminophenyl)‐1H‐1,2,3‐triazol‐4‐yl]‐2‐morpholinoquinolin‐4(1H)‐one] | < 50 | < 50 | < 50 | < 50 |  |  |
| N#CCc1ccc(-n2cc(-c3cccc4c(=O)cc(N5CCOCC5)[nH]c34)nn2)cc1 [Compound 33, 2‐{4‐[4‐(2‐Morpholino‐4‐oxo‐1,4‐dihydroquinolin‐8‐yl)‐1H‐1,2,3‐triazol‐1‐yl]phenyl} acetonitrile] | < 50 | < 50 | < 50 | < 50 |  |  |
| O=c1cc(N2CCOCC2)[nH]c2c(-c3cn(-c4ccc5ccccc5c4)nn3)cccc12 [Compound 34, 2‐Morpholino‐8‐[1‐(naphthalen‐2‐yl)‐1H‐1,2,3‐triazol‐4‐yl]quinolin‐4(1H)‐one] | < 50 | < 50 | < 50 | < 50 |  |  |
| COc1cccc(-n2cc(-c3cccc4c(=O)cc(N5CCOCC5)[nH]c34)nn2)c1 [Compound 35, 8‐[1‐(3‐Methoxyphenyl)‐1H‐1,2,3‐triazol‐4‐yl]‐2‐morpholinoquinolin‐4(1H)‐one] | < 50 | < 50 | > 50 | < 50 |  | IC50 ([1]; Table 2, read-out: IC50 PI3Kα): 1300 ± 700 nM; IC50 [2]: 9300 ± 5800 nM; IC50 [3]: 810 ± 360 nM; IC50 [4]: 4200 ± 2100 nM |
| O=c1cc(N2CCOCC2)[nH]c2c(-c3cn(-c4cnc5ccccc5c4)nn3)cccc12 [Compound 36, 2‐Morpholino‐8‐[1‐(quinolin‐3‐yl)‐1H‐1,2,3‐triazol‐4‐yl]quinolin‐4(1H)‐one] | < 50 | < 50 | < 50 | < 50 |  |  |
| COc1ccc(NC(C)=O)cc1-n1cc(-c2cccc3c(=O)cc(N4CCOCC4)[nH]c23)nn1 [Compound 38, N ‐{4‐Methoxy‐3‐[4‐(2‐morpholino‐4‐oxo‐1,4‐dihydroquinolin‐8‐yl)‐1H‐1,2,3‐triazol‐1‐yl]phenyl}acetamide] | < 50 | < 50 | < 50 | < 50 |  |  |
| O=C(O)CCCn1cc(-c2cccc3c(=O)cc(N4CCOCC4)[nH]c23)nn1 [Compound 55, 4‐[4‐(2‐Morpholino‐4‐oxo‐1,4‐dihydroquinolin‐8‐yl)‐1H‐1,2,3‐triazol‐1‐yl]butanoic acid] |  |  |  |  | > 1000 |  |
| O=C(O)CCCCn1cc(-c2cccc3c(=O)cc(N4CCOCC4)[nH]c23)nn1 [Compound 56, 5‐[4‐(2‐Morpholino‐4‐oxo‐1,4‐dihydroquinolin‐8‐yl)‐1H‐1,2,3‐triazol‐1‐yl]pentanoic acid] |  |  |  |  | > 1000 |  |
| O=C(O)CCCCCn1cc(-c2cccc3c(=O)cc(N4CCOCC4)[nH]c23)nn1 [Compound 57] |  |  |  |  | > 1000 |  |
| CS(=O)(=O)NC(=O)c1cccc(Cn2cc(-c3cccc4c(=O)cc(N5CCOCC5)[nH]c34)nn2)c1 [Compound 58, N ‐(Methylsulfonyl)‐3‐{[4‐(2‐morpholino‐4‐oxo‐1,4‐dihydroquinolin‐8‐yl)‐1H‐1,2,3‐triazol‐1‐yl]methyl}benzamide] |  |  |  |  | > 1000 |  |
| NC(=O)c1cccc(Cn2cc(-c3cccc4c(=O)cc(N5CCOCC5)[nH]c34)nn2)c1 [Compound 59, 3‐{[4‐(2‐Morpholino‐4‐oxo‐1,4‐dihydroquinolin‐8‐yl)‐1H‐1,2,3‐triazol‐1‐yl]methyl}benzamide] |  |  |  |  | 800 ± 740 |  |
| O=C(NCc1ccccc1)c1cccc(Cn2cc(-c3cccc4c(=O)cc(N5CCOCC5)[nH]c34)nn2)c1 [Compound 60, N ‐Benzyl‐3‐{[4‐(2‐morpholino‐4‐oxo‐1,4‐dihydroquinolin‐8‐yl)‐1H‐1,2,3‐triazol‐1‐yl]methyl}benzamide] |  |  |  |  | 140 ± 90 |  |
| O=C(NC1CC1)c1cccc(Cn2cc(-c3cccc4c(=O)cc(N5CCOCC5)[nH]c34)nn2)c1 [Compound 61, N ‐Cyclopropyl‐3‐{[4‐(2‐morpholino‐4‐oxo‐1,4‐dihydroquinolin‐8‐yl)‐1H‐1,2,3‐triazol‐1‐yl]methyl}benzamide] |  |  |  |  | 250 ± 80 |  |
| CCN(CC)C(=O)c1cccc(Cn2cc(-c3cccc4c(=O)cc(N5CCOCC5)[nH]c34)nn2)c1 [Compound 62, N,N ‐Diethyl‐3‐{[4‐(2‐morpholino‐4‐oxo‐1,4‐dihydroquinolin‐8‐yl)‐1H‐1,2,3‐triazol‐1‐yl]methyl}benzamide] |  |  |  |  | 290 ± 80 |  |
| O=c1cc(N2CCOCC2)[nH]c2c(-c3cn(Cc4cccc(-c5nnn[nH]5)c4)nn3)cccc12 [Compound 63, 8‐{1‐[3‐(1H‐Tetrazol‐5‐yl)benzyl]‐1H‐1,2,3‐triazol‐4‐yl}‐2‐morpholinoquinolin‐4(1H)‐one] |  |  |  |  | > 1000 |  |
